We go through 1 substance from patent publication US9939427B2, “Method for evaluating the scent performance of perfumes or perfume mixtures” (Symrise AG, priority 2013, dated 2018).

Assay type in all cases: cell-based
In test [1] the test system is HEK293 cells transfected with all cofactors and pCI plasmids without ORs. As to the kind of experiment: Ca-imaging of control HEK293 cells without OR. As to conditions: odorant 200 μM, three times of measuring (Table 4, FIG. 5). The procedure: (§1) HEK293 cells were cultivated in Petri dishes (Ø35 mm) as previously described (Benbernou et al. 2007). We grow up HEK293 cells in culture medium containing standard DMEM with 10% heat-inactivated fetal bovine serum, 2 mM L-glutamine, 100 units/ml penicillin, and 100 units/ml streptomycin in a humidified atmosphere (37° C., 5% CO2). After 2-3 days, the transfection process was carried out, whereby the cell culture was 70-80% confluent. The calciumphosphate method was applied to transfect DNA plasmid transiently in HEK293 cells in case of Ca-imaging method.
(§2) Calcium cations and phosphate anions created crystal precipitations coupled with DNA which could invade into the cells through endocytosis. Cells were transiently transfected with plasmid DNA which consists of pCI expression vector and PCR-amplified full-length cDNA of olfactory receptors candidates, and also Gα15, RTP1, Myr-Ric8A, HSC70, and m-Cherry as cofactors. The precipitation could be created after 15-20 min, with dropping the transfection solution on HEK293 cells. Before measuring by Ca-imaging cells were incubated 48-60 hours at 370 C, 5% CO2. Cationic liposome-mediated transfection method was applied to transfect DNA plasmid transiently in HANA3A cells in case of CRE-Luciferase and CRE-SEAP assays.
(§3) Calcium imaging of the transfected HEK293 cells was done by using chambers determinate an inverted microscope (Olympus; IX70) using a 10× objective (CPIanFL N Olympus). Fluorescence emission was determined every 4 s by using a CCD camera (Charge Coupled Device, C9100 Hamamatsu). The capillary tube which was responsible to supply odorants was generated closely above the cells. The columns filled with odorants, DMSO and ATP. Odorants were manually monitored to drop each 4-5 s to transfected cells. Solutions with drop wise form spread on HEK293 cells in 35 mm dishes.
(§4) In experiments, Fura-2 Acetoxymethylester (Fura-2/AM) was applied. The non-polar Fura2/AM is fluorescent but not yet calcium-sensitive. Once diffuses into cell plasma, Fura-2/AM is hydrolyzed to Fura-2 which is calcium-sensitive and functions as Ca2+ chelator. Regardless of the presence of calcium, Fura-2 emits at the wavelength of 510 nm. Once Fura-2 binds to free intracellular Ca2+ in cell plasma, its ratio of excitation at wavelengths of 340 nm and 380 nm is changed and correlated to the amount of intracellular Ca2+. According to this feature, the analysis of 340/380 nm excitation ratio for Fura-2 allows to quantify intracellular calcium levels.
(§5) In preparation for Ca-imaging measurements, transfected HEK293 cells were added 3 it Fura2/AM (3 μM) and incubated 30-45 min at 370 C, 5% CO2. After this step, experiments were carried out in a dark condition (Fura-2 is light-sensitive). After the incubation, medium of cell culture was replaced with 2 ml Ringer's solution.
(§6) Odorants were freshly prepared with DMSO as 1 M stocks solutions. Six mixtures (200 μM each chemical) were applied to cells sequentially (20 s each mixture/30 s Ringer). Those ORs tested with single odorants that had generated a response to odorant mixture group previously. Odorants were prepared in 100-200 μM concentration.
(§7) Ringer's solution was used for washing cells between measuring by two different odorants. Positive response was determined by the timing of the response, the strength of the response (more than twofold higher than the noise amplitude of the baseline), and the shape of the response curve (sharp rise in curve with gradual recovery). The typical shape of response curves was established by observing responses to repeated stimulation with 200 μM of odorants. After testing with single odorants at 100 μM, stimulating odorants were often retested at 200 μM concentrations. To confirm the result of every receptor that produced a significant response curves, the experiment was repeated for twelve times. Finally, cells were exposed to ATP (0.25 mM) which could activate P2Y receptor channel and induce Ca2+ influx into cells. […]

Test [2] has as its target T1, OR2L8 (Homo sapiens, UniProt Q8NGY9).
T1 construct: specific primers, which amplify the complete open reading frame; expressed in transfected cells; host or cells: HEK293
T1 sequence (Q8NGY9 1-312): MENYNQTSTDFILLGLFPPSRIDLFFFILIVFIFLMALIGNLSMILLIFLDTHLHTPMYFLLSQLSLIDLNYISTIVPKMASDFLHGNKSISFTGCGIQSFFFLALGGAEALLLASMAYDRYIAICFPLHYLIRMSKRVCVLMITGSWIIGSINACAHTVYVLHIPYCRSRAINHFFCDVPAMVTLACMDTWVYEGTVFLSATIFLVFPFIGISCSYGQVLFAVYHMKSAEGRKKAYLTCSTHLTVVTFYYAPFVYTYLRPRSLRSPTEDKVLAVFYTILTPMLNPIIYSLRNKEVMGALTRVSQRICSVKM
Put plainly: CRE-luciferase assay, OR2L8 in HANA3A cells. As to conditions: 50 μM, 100 μM and 150 μM; normalized to DMSO. The procedure: as §2, with “assays. […]” for “assays.”
ORs responded by Ca-imaging with seven separate odorant mixtures formed from 66 odorants. […] Transfected HANA3A cells on poly-D-lysine-coated 96 well plates are ready for stimulation after 24 h. […] Measuring by plate reader (Luminometer). • 6. […] Measuring by plate reader (Luminometer). • 8. According to manufacturer's protocols for measuring luciferase and renilla activities, calculate normalized luciferase activity with using the formula (Ln-Lmin)/(Lmax-Lmin), where Ln is the luminescence of firefly in response to the odorant, L min is the minimum luciferase value on a plate, and L max is the maximum luciferase value on plate. […]

The next test has as its target T2, OR4K5 (Homo sapiens, UniProt Q8NGD3).
T2 construct: specific primers, which amplify the complete open reading frame; expressed in transfected cells; host or cells: HEK293
T2 sequence (Q8NGD3 1-323): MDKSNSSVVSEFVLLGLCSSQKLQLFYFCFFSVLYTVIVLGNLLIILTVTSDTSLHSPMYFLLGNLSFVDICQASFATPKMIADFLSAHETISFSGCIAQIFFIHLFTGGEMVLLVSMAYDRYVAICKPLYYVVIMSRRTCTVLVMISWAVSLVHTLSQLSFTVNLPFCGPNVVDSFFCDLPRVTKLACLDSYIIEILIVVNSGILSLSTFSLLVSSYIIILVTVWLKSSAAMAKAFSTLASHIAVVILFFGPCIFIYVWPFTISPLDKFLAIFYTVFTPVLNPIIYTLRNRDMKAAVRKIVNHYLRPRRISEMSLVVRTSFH
As to the kind of experiment: Ca-imaging of OR4K5-transfected HEK293 cells. The arrangement: key to OR4K5 responded to odorant: ▪: 18 olfactory receptors responded to 32 odorants in related with specific anosmia. The procedure:
as §1
Calcium cations and phosphate anions created crystal precipitations coupled with DNA which could invade into the cells through endocytosis. Cells were transiently transfected with plasmid DNA which consists of pCI expression vector and PCR-amplified full-length cDNA of olfactory receptors candidates, and also Gα15, RTP1, Myr-Ric8A, HSC70, and m-Cherry as cofactors. The precipitation could be created after 15-20 min, with dropping the transfection solution on HEK293 cells. Before measuring by Ca-imaging cells were incubated 48-60 hours at 370 C, 5% CO2. […]
Calcium imaging of the transfected HEK293 cells was done by using chambers determinate an inverted microscope (Olympus; IX70) using a 10× objective (CPIanFL N Olympus). Fluorescence emission was determined every 4 s by using a CCD camera (Charge Coupled Device, C9100 Hamamatsu). […] Odorants were manually monitored to drop each 4-5 s to transfected cells. […]
In experiments, Fura-2 Acetoxymethylester (Fura-2/AM) was applied. […] According to this feature, the analysis of 340/380 nm excitation ratio for Fura-2 allows to quantify intracellular calcium levels. […]
Ringer's solution was used for washing cells between measuring by two different odorants. Positive response was determined by the timing of the response, the strength of the response (more than twofold higher than the noise amplitude of the baseline), and the shape of the response curve (sharp rise in curve with gradual recovery). […]

Test [3] has as its target T1, OR2L8. As to the kind of experiment: Ca-imaging of OR2L8-transfected HEK293 cells. Also noted: key to OR2L8 responded to odorant: ▪: 18 olfactory receptors responded to 32 odorants in related with specific anosmia. The procedure: as §1, §2, §3, §4, §5, §6, §7

Entries after “also recorded” stand apart in the source; their conditions may differ.

Turning to Ysamber K [Yasamber K], the “Number of cell responses, Control” value in test [1] is listed as 2. For the same substance, the “CRE-luciferase (cAMP assay) response of OR2L8” value at OR2L8 [2] was “weak response”. Also, the “OR4K5 responded to odorant” value at OR4K5 (HEK293 cells, individual odorant 200 μM, significant response p<0.05) is “▪”. The “Response of OR4K5 to odorant, in words” value at OR4K5 (single odorants 200 μM) is “detected”. Moreover, the “OR2L8 responded to odorant” value on OR2L8 [3] (Ca-imaging, HEK293 cells, individual odorant 200 μM, significant response p<0.05) was “▪”. Further, the “Response of OR2L8 to odorant, in words” value on OR2L8 [3] (Ca-imaging, single odorants 200 μM) is “Ca2+ concentration increased; also recorded: detected”. In addition, on OR2L8 [3] (odorant 200 μM, approximately 2000 transfected cells in three times of measuring (Table 4, FIG. 5)), the “Number of cell responses, Experiment (OR2L8)” value was found to be 10.
